According to patent US20260297085A1, “1 H-PYRROLO[2,3-B]PYRIDIN-4-YL]-2-OXOPYRROLIDINE-3-CARBONITRILE DERIVATIVES AS TYROSINE KINASE 2 (TYK2) INHIBITORS FOR THE TREATMENT OF INFLAMMATORY DISEASES” (BIOGEN MA INC., priority 2023, published 2026):
Where a name gives a salt, the structure may show the parent alone.

Columns and labels:
[1] = molecular target: JAK2 kinase activity on STAT5 in TF1 cells (Homo sapiens, UniProt O60674); assay: pSTAT5 cell assay (MSD; TF1 cells, 30 ng/mL IL-3 stimulation); format: cell-based; details: 30 ng/mL IL-3, 15 minutes
How it was run: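 IC50 from a 4-parameter logistic fit of normalized pSTAT5 signal, measured by MSD in lysates of TF1 cells. Cells were serum-starved, exposed to compound for 1 h (top concentration 10 μM, four-fold, 10 points), then given IL-3 at 30 ng/mL for 15 min.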

[2] = molecular target: T1, human TYK2 kinase domain (JH1) (Homo sapiens, UniProt P29597); assay: JH1 biochemical assay for TYK2 (ADP-Glo kinase assay, recombinant JH1 catalytic domain, JAK3-974 peptide, 10 μM ATP)
T1 construct: recombinantly generated catalytic kinase (also known as JH1) domain of human JAK1, JAK2, JAK3 and TYK2
T1 sequence (P29597 897-1176 limits assumed): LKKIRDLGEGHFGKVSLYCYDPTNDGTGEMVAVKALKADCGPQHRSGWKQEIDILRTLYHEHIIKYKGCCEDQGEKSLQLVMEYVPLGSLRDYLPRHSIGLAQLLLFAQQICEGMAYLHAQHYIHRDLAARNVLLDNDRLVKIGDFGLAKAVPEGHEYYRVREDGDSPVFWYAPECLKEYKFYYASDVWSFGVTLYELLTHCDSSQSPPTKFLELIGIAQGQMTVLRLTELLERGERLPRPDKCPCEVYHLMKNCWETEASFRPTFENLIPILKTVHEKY
How it was run: (§1)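 Compounds were titrated in 11 points of 3-fold dilution starting at 10 μM or 1 μM. Enzyme (JAK1 4 nM, JAK2 0.2 nM, JAK3 0.3 nM, TYK2 2 nM) and 50 μM peptide reacted for 100 minutes, followed by ADP-to-luminescence detection; IC50 by 4-parameter fit.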

[3] = molecular target: JAK1 kinase activity on STAT3 in TF1 cells (Homo sapiens, UniProt P23458); assay: pSTAT3 cell assay (MSD; TF1 cells, 30 ng/mL IL-6 stimulation); format: cell-based; details: 30 ng/mL IL-6, 15 minutes
How it was run: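 IC50 values derive from 4-parameter logistic fits of normalized pSTAT3 signal, measured by MSD with anti-STAT3 antibodies. TF1 cells, serum-starved beforehand, received compound for 1 hour (top concentration 10 μM, four-fold steps, 10 points) before a 15-minute IL-6 (30 ng/mL) stimulus.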

[4] = molecular target: T2, human JAK1 kinase domain (JH1) (Homo sapiens, UniProt P23458); assay: JH1 biochemical assay for JAK1 (ADP-Glo kinase assay, recombinant JH1 catalytic domain, JAK3-342 peptide, 35 μM ATP)
T2 construct: recombinantly generated catalytic kinase (also known as JH1) domain of human JAK1, JAK2, JAK3 and TYK2
How it was run: as §1

[5] = molecular target: Tyk2 kinase activity on STAT4 in NK92 cells (Homo sapiens, UniProt P29597); assay: pSTAT4 cell assay (MSD; NK92 cells, 30 ng/mL IL2 stimulation); format: cell-based; details: 30 ng/mL IL2, 15 minutes
How it was run: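 IC50 values come from 4-parameter logistic fits of normalized percent activity. Phospho-STAT was read by MSD (anti-STAT4 antibodies) in NK92 lysates after a 15 min stimulation with 30 ng/mL IL2. The serum-starved cells had been given compound for 1 h (10 points, four-fold, top 10 μM).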

[6] = molecular target: T3, human JAK3 kinase domain (JH1) (Homo sapiens, UniProt P52333); assay: JH1 biochemical assay for JAK3 (ADP-Glo kinase assay, recombinant JH1 catalytic domain, JAK3-974 peptide, 4 μM ATP)
T3 construct: recombinantly generated catalytic kinase (also known as JH1) domain of human JAK1, JAK2, JAK3 and TYK2
How it was run: as §1

[7] = molecular target: T4, human JAK2 kinase domain (JH1) (Homo sapiens, UniProt O60674); assay: JH1 biochemical assay for JAK2 (ADP-Glo kinase assay, recombinant JH1 catalytic domain, JAK3-974 peptide, 15 μM ATP)
T4 construct: recombinantly generated catalytic kinase (also known as JH1) domain of human JAK1, JAK2, JAK3 and TYK2
How it was run: as §1

Chain of Tyk2 kinase activity on STAT4 in NK92 cells (P29597 whole entry): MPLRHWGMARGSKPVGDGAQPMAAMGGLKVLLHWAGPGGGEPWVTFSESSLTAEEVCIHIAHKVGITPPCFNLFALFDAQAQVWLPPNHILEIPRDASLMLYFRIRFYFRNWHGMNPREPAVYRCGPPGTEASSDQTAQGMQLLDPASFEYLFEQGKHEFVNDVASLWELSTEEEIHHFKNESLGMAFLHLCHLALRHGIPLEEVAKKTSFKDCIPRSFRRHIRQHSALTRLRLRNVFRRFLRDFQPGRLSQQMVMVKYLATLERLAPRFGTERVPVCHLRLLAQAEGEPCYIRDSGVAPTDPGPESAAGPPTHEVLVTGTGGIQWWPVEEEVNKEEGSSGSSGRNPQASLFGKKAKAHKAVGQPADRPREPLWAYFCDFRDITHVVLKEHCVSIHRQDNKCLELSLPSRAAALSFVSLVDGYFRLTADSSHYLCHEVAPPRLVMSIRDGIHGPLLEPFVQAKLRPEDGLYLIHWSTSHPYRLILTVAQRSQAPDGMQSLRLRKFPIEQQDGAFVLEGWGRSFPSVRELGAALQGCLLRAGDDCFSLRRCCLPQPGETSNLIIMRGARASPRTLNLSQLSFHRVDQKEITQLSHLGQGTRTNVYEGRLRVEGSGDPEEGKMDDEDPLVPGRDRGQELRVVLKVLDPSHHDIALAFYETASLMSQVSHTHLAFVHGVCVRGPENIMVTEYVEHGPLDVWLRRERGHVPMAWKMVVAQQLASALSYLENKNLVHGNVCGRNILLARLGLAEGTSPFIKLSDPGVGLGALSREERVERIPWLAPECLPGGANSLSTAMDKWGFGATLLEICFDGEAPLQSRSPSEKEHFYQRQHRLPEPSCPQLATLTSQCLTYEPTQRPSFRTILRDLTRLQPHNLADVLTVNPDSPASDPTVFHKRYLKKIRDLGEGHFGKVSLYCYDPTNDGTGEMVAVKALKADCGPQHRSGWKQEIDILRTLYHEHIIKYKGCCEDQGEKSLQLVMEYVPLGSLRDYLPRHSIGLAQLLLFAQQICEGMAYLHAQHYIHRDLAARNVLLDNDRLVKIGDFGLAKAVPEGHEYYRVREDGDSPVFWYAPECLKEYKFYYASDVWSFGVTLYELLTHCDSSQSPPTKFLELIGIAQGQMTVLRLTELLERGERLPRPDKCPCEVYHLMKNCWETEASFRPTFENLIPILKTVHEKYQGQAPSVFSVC
T4 sequence (O60674 849-1124 limits assumed): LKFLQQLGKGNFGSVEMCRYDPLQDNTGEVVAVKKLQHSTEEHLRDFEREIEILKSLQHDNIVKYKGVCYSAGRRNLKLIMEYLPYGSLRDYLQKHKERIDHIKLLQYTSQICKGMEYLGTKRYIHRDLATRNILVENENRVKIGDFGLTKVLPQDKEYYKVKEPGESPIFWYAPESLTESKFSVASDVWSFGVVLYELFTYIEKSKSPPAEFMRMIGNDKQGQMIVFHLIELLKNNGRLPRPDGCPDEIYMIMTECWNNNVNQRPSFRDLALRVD
Chain of JAK1 kinase activity on STAT3 in TF1 cells (P23458 whole entry): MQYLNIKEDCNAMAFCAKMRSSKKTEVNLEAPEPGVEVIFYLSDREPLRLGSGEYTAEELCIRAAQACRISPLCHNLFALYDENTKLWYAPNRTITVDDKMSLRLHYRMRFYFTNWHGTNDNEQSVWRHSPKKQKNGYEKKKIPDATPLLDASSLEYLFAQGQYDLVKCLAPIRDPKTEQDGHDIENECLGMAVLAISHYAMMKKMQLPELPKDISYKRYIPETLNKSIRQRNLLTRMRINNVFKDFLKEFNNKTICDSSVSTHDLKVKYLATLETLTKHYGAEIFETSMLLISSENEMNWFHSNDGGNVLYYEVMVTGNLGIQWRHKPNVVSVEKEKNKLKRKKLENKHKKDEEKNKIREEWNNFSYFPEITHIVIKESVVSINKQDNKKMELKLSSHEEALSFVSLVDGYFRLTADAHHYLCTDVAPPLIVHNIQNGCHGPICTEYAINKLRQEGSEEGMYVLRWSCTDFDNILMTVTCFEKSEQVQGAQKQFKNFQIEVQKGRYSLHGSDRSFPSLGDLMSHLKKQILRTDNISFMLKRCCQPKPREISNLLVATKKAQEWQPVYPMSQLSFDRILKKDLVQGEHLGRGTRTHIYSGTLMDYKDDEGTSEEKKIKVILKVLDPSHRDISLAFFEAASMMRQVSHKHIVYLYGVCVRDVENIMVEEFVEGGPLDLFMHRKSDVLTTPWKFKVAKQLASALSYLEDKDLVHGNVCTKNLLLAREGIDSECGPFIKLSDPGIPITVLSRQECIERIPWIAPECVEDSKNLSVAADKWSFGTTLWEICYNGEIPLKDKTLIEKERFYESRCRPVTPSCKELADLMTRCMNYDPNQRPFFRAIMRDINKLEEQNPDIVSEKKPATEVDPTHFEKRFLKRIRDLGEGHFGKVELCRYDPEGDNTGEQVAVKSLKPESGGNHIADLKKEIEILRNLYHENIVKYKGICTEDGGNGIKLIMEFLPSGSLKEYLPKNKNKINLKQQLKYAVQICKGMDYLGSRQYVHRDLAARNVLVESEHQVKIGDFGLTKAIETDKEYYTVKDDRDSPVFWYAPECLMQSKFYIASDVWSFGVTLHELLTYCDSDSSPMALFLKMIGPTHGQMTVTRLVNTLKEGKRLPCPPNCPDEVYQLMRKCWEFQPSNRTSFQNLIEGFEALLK
T3 sequence (P52333 822-1111 limits assumed): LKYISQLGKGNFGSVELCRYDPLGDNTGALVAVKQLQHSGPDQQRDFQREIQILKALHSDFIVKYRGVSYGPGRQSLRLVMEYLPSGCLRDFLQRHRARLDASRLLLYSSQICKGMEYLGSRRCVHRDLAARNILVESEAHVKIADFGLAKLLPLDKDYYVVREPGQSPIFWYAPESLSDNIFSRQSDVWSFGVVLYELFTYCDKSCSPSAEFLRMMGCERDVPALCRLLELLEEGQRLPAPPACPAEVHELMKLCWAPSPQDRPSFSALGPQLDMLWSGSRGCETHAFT
T2 sequence (P23458 875-1153 limits assumed): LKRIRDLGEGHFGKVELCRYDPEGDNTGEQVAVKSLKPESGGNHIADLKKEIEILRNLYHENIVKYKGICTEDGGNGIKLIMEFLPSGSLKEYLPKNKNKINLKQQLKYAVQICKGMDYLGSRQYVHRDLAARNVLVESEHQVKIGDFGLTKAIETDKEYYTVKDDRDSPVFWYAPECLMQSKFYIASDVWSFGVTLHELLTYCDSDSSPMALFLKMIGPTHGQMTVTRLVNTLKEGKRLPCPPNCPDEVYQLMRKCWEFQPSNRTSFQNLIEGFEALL
Chain of JAK2 kinase activity on STAT5 in TF1 cells (O60674 whole entry): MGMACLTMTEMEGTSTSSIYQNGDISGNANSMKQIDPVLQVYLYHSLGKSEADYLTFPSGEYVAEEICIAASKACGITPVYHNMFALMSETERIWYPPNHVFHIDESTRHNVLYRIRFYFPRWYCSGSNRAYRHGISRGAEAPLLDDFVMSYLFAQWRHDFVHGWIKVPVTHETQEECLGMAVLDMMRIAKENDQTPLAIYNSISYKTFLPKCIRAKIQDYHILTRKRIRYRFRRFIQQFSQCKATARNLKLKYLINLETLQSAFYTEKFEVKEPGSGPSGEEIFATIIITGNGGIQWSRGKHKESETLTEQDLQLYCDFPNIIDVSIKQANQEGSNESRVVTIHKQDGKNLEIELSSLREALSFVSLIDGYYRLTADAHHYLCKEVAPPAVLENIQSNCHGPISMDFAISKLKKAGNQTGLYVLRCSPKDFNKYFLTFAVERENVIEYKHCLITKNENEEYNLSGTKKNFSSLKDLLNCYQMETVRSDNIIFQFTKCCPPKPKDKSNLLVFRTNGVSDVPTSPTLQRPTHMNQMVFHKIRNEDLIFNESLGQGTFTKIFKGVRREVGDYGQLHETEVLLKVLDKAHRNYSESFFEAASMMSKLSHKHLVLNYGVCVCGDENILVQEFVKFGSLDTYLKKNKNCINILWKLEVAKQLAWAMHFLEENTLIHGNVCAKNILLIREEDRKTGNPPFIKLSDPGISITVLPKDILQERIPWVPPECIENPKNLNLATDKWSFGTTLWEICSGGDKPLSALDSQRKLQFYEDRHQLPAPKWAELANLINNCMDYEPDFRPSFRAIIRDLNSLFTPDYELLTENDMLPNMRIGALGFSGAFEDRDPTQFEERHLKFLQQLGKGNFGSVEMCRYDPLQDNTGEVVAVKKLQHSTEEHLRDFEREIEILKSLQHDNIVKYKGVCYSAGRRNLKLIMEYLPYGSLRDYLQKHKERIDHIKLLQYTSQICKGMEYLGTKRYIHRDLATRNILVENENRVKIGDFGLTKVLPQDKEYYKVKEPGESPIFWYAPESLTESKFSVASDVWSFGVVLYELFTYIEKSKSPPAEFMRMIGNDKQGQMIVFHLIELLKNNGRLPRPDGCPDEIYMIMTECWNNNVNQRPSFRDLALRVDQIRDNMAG

## [2H]C([2H])([2H])n1cc(-c2cn3ncc(F)c3c(N3C[C@@H](C)[C@@](C#N)(C4CC4)C3=O)n2)cn1 [Example 211, (3R,4S)-3-cyclopropyl-1-(3-fluoro-6-(1-(methyl-d3)-1H-pyrazol-4-yl)pyrazolo[1,5-a]pyrazin-4-yl)-4-methyl-2-oxopyrrolidine-3-carbonitrile]
[1]
  IC50: 1000 to 5000 nM
[2]; JH1 kinase domain, ADP-Glo
  IC50: < 5 nM
[3]
  IC50: 1000 to 5000 nM
[4]; JH1 kinase domain, ADP-Glo
  IC50: < 100 nM
[5]
  IC50: 50 to 100 nM
[6]; JH1 kinase domain, ADP-Glo
  IC50: < 100 nM
[7]; JH1 kinase domain, ADP-Glo
  IC50: 100 to 1000 nM

## Cc1nc(-c2cn3nccc3c(N3C[C@@H](C)[C@@](C#N)(C4CC4)C3=O)n2)cs1 [Example 214, (3R,4S)-3-cyclopropyl-4-methyl-1-(6-(2-methylthiazol-4-yl)pyrazolo[1,5-a]pyrazin-4-yl)-2-oxopyrrolidine-3-carbonitrile]
[1]
  IC50: 5000 to 10000 nM
[2]; JH1 kinase domain, ADP-Glo
  IC50: 5 to 20 nM
[3]
  IC50: 1000 to 5000 nM
[4]; JH1 kinase domain, ADP-Glo
  IC50: 100 to 1000 nM
[5]
  IC50: > 100 nM
[6]; JH1 kinase domain, ADP-Glo
  IC50: 100 to 1000 nM
[7]; JH1 kinase domain, ADP-Glo
  IC50: 100 to 1000 nM

## C[C@@H]1CN(c2nc(-c3cnc4c(c3)CCN4)cn3nccc23)C(=O)[C@]1(C#N)C1CC1 [Example 215, (3R,4S)-3-cyclopropyl-1-(6-(2,3-dihydro-1H-pyrrolo[2,3-b]pyridin-5-yl)pyrazolo[1,5-a]pyrazin-4-yl)-4-methyl-2-oxopyrrolidine-3-carbonitrile]
[1]
  IC50: 100 to 1000 nM
[2]; JH1 kinase domain, ADP-Glo
  IC50: < 5 nM
[3]
  IC50: 100 to 1000 nM
[4]; JH1 kinase domain, ADP-Glo
  IC50: < 100 nM
[5]
  IC50: 50 to 100 nM
[6]; JH1 kinase domain, ADP-Glo
  IC50: < 100 nM
[7]; JH1 kinase domain, ADP-Glo
  IC50: < 100 nM

## C[C@@H]1CN(c2nc(-c3cnn(C4CCCC4)c3)cn3ncc(F)c23)C(=O)[C@]1(C#N)C1CC1 [Example 217, (3R,4S)-1-(6-(1-cyclopentyl-1H-pyrazol-4-yl)-3-fluoropyrazolo[1,5-a]pyrazin-4-yl)-3-cyclopropyl-4-methyl-2-oxopyrrolidine-3-carbonitrile]
[1]
  IC50: 1000 to 5000 nM
[2]; JH1 kinase domain, ADP-Glo
  IC50: < 5 nM
[3]
  IC50: 100 to 1000 nM
[4]; JH1 kinase domain, ADP-Glo
  IC50: < 100 nM
[5]
  IC50: > 100 nM
[6]; JH1 kinase domain, ADP-Glo
  IC50: < 100 nM
[7]; JH1 kinase domain, ADP-Glo
  IC50: < 100 nM

## C[C@@H]1CN(c2nc(-c3cnn(C4CCOCC4)c3)cn3ncc(F)c23)C(=O)[C@]1(C#N)C1CC1 [Example 218, (3R,4S)-3-cyclopropyl-1-(3-fluoro-6-(1-(tetrahydro-2H-pyran-4-yl)-1H-pyrazol-4-yl)pyrazolo[1,5-a]pyrazin-4-yl)-4-methyl-2-oxopyrrolidine-3-carbonitrile]
[1]
  IC50: 100 to 1000 nM
[2]; TYK2 JH1, ADP-Glo
  IC50: < 5 nM
[3]
  IC50: 100 to 1000 nM
[4]; JAK1 JH1, ADP-Glo
  IC50: < 100 nM
[5]
  IC50: 50 to 100 nM
[6]; JAK3 JH1, ADP-Glo
  IC50: < 100 nM
[7]; JAK2 JH1, ADP-Glo
  IC50: < 100 nM

## C[C@@H]1CN(c2nc(-c3cnn(C4CCCCC4)c3)cn3ncc(F)c23)C(=O)[C@]1(C#N)C1CC1 [Example 219, (3R,4S)-1-(6-(1-cyclohexyl-1H-pyrazol-4-yl)-3-fluoropyrazolo[1,5-a]pyrazin-4-yl)-3-cyclopropyl-4-methyl-2-oxopyrrolidine-3-carbonitrile]
[1]
  IC50: 100 to 1000 nM
[2]; TYK2 JH1, ADP-Glo
  IC50: < 5 nM
[3]
  IC50: 100 to 1000 nM
[4]; JAK1 JH1, ADP-Glo
  IC50: < 100 nM
[5]
  IC50: 50 to 100 nM
[6]; JAK3 JH1, ADP-Glo
  IC50: < 100 nM
[7]; JAK2 JH1, ADP-Glo
  IC50: < 100 nM

## C[C@@H]1CN(c2nc(-c3cnn(CC#N)c3)cn3ncc(F)c23)C(=O)[C@]1(C#N)C1CC1 [Example 220, (3R,4S)-1-(6-(1-(cyanomethyl)-1H-pyrazol-4-yl)-3-fluoropyrazolo[1,5-a]pyrazin-4-yl)-3-cyclopropyl-4-methyl-2-oxopyrrolidine-3-carbonitrile]
[1]
  IC50: 1000 to 5000 nM
[2]; TYK2 JH1, ADP-Glo
  IC50: < 5 nM
[3]
  IC50: 1000 to 5000 nM
[4]; JAK1 JH1, ADP-Glo
  IC50: 100 to 1000 nM
[5]
  IC50: > 100 nM
[6]; JAK3 JH1, ADP-Glo
  IC50: < 100 nM
[7]; JAK2 JH1, ADP-Glo
  IC50: 100 to 1000 nM

## Cc1c(-c2cn3ncc(F)c3c(N3C[C@@H](C)[C@@](C#N)(C4CC4)C3=O)n2)cnn1C [Example 221, (3R,4S)-3-cyclopropyl-1-(6-(1,5-dimethyl-1H-pyrazol-4-yl)-3-fluoropyrazolo[1,5-a]pyrazin-4-yl)-4-methyl-2-oxopyrrolidine-3-carbonitrile]
[1]
  IC50: > 10000 nM
[2]; TYK2 JH1, ADP-Glo
  IC50: 5 to 20 nM
[3]
  IC50: 1000 to 5000 nM
[4]; JAK1 JH1, ADP-Glo
  IC50: 100 to 1000 nM
[5]
  IC50: > 100 nM
[6]; JAK3 JH1, ADP-Glo
  IC50: 100 to 1000 nM
[7]; JAK2 JH1, ADP-Glo
  IC50: 1000 to 5000 nM

## C[C@@H]1CN(c2nc(-c3ccc4c(cnn4C)c3)cn3nccc23)C(=O)[C@]1(C#N)C1CC1 [Example 225, (3R,4S)-3-cyclopropyl-4-methyl-1-(6-(1-methyl-1H-indazol-5-yl)pyrazolo[1,5-a]pyrazin-4-yl)-2-oxopyrrolidine-3-carbonitrile trifluoroacetate]
[1]
  IC50: 1000 to 5000 nM
[2]; TYK2 JH1, ADP-Glo
  IC50: < 5 nM
[3]
  IC50: 1000 to 5000 nM
[4]; JAK1 JH1, ADP-Glo
  IC50: < 100 nM
[5]
  IC50: > 100 nM
[6]; JAK3 JH1, ADP-Glo
  IC50: < 100 nM
[7]; JAK2 JH1, ADP-Glo
  IC50: 100 to 1000 nM

## CNC(=O)c1ccc(-c2cn3nccc3c(N3C[C@@H](C)[C@@](C#N)(C4CC4)C3=O)n2)cn1 [Example 227, 5-(4-((3R,4S)-3-cyano-3-cyclopropyl-4-methyl-2-oxopyrrolidin-1-yl)pyrazolo[1,5-a]pyrazin-6-yl)-N-methylpicolinamide trifluoroacetate]
[1]
  IC50: 1000 to 5000 nM
[2]; TYK2 JH1, ADP-Glo
  IC50: < 5 nM
[3]
  IC50: 100 to 1000 nM
[4]; JAK1 JH1, ADP-Glo
  IC50: < 100 nM
[5]
  IC50: > 100 nM
[6]; JAK3 JH1, ADP-Glo
  IC50: < 100 nM
[7]; JAK2 JH1, ADP-Glo
  IC50: 100 to 1000 nM

## CC(=O)Nc1cc(-c2cn3nccc3c(N3C[C@@H](C)[C@@](C#N)(C4CC4)C3=O)n2)ccn1 [Example 228, N-(4-(4-((3R,4S)-3-cyano-3-cyclopropyl-4-methyl-2-oxopyrrolidin-1-yl)pyrazolo[1,5-a]pyrazin-6-yl)pyridin-2-yl)acetamide]
[1]
  IC50: 1000 to 5000 nM
[2]; TYK2 JH1, ADP-Glo
  IC50: < 5 nM
[3]
  IC50: 100 to 1000 nM
[4]; JAK1 JH1, ADP-Glo
  IC50: < 100 nM
[5]
  IC50: 50 to 100 nM
[6]; JAK3 JH1, ADP-Glo
  IC50: < 100 nM
[7]; JAK2 JH1, ADP-Glo
  IC50: 100 to 1000 nM

## C[C@@H]1CN(c2nc(-c3cnc4[nH]ccc4c3)cn3nccc23)C(=O)[C@]1(C#N)C1CC1 [Example 230, (3R,4S)-1-(6-(1H-pyrrolo[2,3-b]pyridin-5-yl)pyrazolo[1,5-a]pyrazin-4-yl)-3-cyclopropyl-4-methyl-2-oxopyrrolidine-3-carbonitrile]
[1]
  IC50: 1000 to 5000 nM
[2]; TYK2 JH1, ADP-Glo
  IC50: < 5 nM
[3]
  IC50: 100 to 1000 nM
[4]; JAK1 JH1, ADP-Glo
  IC50: < 100 nM
[5]
  IC50: 5 to 20 nM
[6]; JAK3 JH1, ADP-Glo
  IC50: < 100 nM
[7]; JAK2 JH1, ADP-Glo
  IC50: 100 to 1000 nM

## C[C@@H]1CN(c2nc(-c3cc[nH]n3)cn3nccc23)C(=O)[C@]1(C#N)C1CC1 [Example 232, (3R,4S)-1-(6-(1H-pyrazol-3-yl)pyrazolo[1,5-a]pyrazin-4-yl)-3-cyclopropyl-4-methyl-2-oxopyrrolidine-3-carbonitrile trifluoroacetate]
[1]
  IC50: > 10000 nM
[2]; TYK2 JH1, ADP-Glo
  IC50: 5 to 20 nM
[3]
  IC50: 1000 to 5000 nM
[4]; JAK1 JH1, ADP-Glo
  IC50: < 100 nM
[5]
  IC50: > 100 nM
[6]; JAK3 JH1, ADP-Glo
  IC50: 100 to 1000 nM
[7]; JAK2 JH1, ADP-Glo
  IC50: 100 to 1000 nM
